Experimental data reported in patent publication US8324282B2, “Alkylating agent combinations in the treatment of cancer” (Case Western Reserve University, priority 1999, dated 2012).

What was measured:
[1] = Acute toxicity of MX (i.p.); conditions: mice, single injection
Procedure: Three mice per group were injected (i.p.) with MX at doses of 1, 2, 4, 6, 10 and 15 mg/kg for the test of acute toxicity.

[2] = tested on: HCT116 xenograft; assay: HCT116 xenograft tumor response in nude mice; type: in vivo; conditions: HCT116 xenograft; Table 2 doses: TMZ 120, MX 2, MX+TMZ 2/120 mg/kg; daily for 5 days
[3] = tested on: AP-endonuclease (APE); assay: AP site cleavage by AP-endonuclease (APE); type: biochemical
Procedure: 2. AP sites cleavaged by AP-endonuclease (APE). […] The assay may be performed as follows (see also FIGS. 23A and B):
a. AP site is prepared by replacing single nucleoside with deoxyuridine in duplex oligonucleotides (40 mer).
b. Regular AP site is produced in the duplex oligonucleotides by human uracil DNA glycosylase (LIDGase, Trevigen, Gaithersburg, Md.) to remove the uracil residue.
c. To generate MX-adducted AP site substrates: the UDG-treated duplex oligonucleotides are mixed with 10 mM MX in buffer containing 10 mM KPO4, pH 7.1 and incubated at 37° C. After 30 min, the substrates are recovered by ethanol precipitation, lyophilized, resuspended in water, and stored at −20° C.
d. APE-cleavage reaction: DNA substrates containing either regular AP-sites or chemicalmodified AP sites are incubated with APE (Trevigen, Gaithersburg, Md.) for 30 min and reactants are precipitated with 100% cold ethanol, washed with 70% ethanol and resuspended in TE buffer. The reactants are resolved by denaturing 20% polyacrylamide gel electrophoresis and visualized by silver staining (Silver Staining Kit, Pharmacia Biotech).

[4] = tested on: murine bone marrow progenitor cells; assay: Colony forming assay, murine bone marrow progenitor cells; type: cell-based, mouse; conditions: murine bone marrow progenitor cells; colony forming assay
Excerpt: We observed less myelosuppression and less weight loss using TMZ and MX than using TMZ and BG. […] To test this hypothesis, we conducted in vitro experiments comparing the sensitivity to BG+TMZ and MX+TMZ in colon cancer cell lines with that of mouse bone marrow and human bone marrow cells. […] MX increased TMZ killing by 4 fold in SW480 cells. […] Topoisomerase (Topo) I and Topo II recognize spontaneous AP sites and form stable cleavable complexes. We hypothesized that AP sites formed during repair of TMZ-induced N7 mG and N3 mA adducts would also be recognized by Topo I and Topo II. However since Base Excision Repair [BER] is normally quite efficient, we further hypothesized that the impact of Topo I and Topo II would be most important after MX inhibition of BER; increased unrepaired MX adducted AP sites should increase Topo mediated strand breaks and apoptosis. Therefore, potentiation of TMZ cytotoxicity by MX would be dependent on Topo I and II. […] Lack of Topo I and II results in less cleavable complex formation, fewer double strand DNA breaks, and less apoptosis. We predict a better therapeutic index for the combination of MX/TMZ than observed with BG/TMZ because of the relative overexpression of topoisomerases I and II in malignant cells compared to marrow progenitors.

[5] = Toxicity evaluation in mice bearing SW480 xenograft; conditions: Table 1 doses
Procedure: Tumors in Nude Mice. Tumor cells (5×10^6) were injected into flanks of female athymic HSD nude mice, at 6-8 weeks of age. The tumors were measured with calipers using the National Cancer Institute formula: V=L(mm)×I^2 (mm)/2 where L is the largest diameter and I is the smallest diameter of the tumor. […] Toxicity Evaluation. Toxicity after treatment was evaluated by body weight measurements and peripheral WBC counting. Body weight was measured three times weekly from the first treatment until 2 weeks after the end of treatment. The weight loss was expressed as a percentage of the initial weight (initial weight−lowest weight/initial weight×100%).

[6] = tested on: SW480 cells; assay: Colony survival assay, SW480; type: cell-based, human
Excerpt: Chemicals and Reagents. BG was generously provided by Dr. Robert Moschel (Frederick Cancer Research and Development Center, National Cancer Institute). Stock solution was made in dimethylsulfoxide. TMZ and BCNU were obtained from the Drug Synthesis and Chemistry Branch, Drug Therapeutic Program, National Cancer Center Institute. PD128763 was a gift from Park-Davis Pharmaceutical Division. 6-AN, 3-AB, MX and methylmethane sulfonate (MMS) were purchased from Sigma (ST. Louis, Mo.). Stock solutions of PD128763, 3-AB and 6-AN were prepared by dissolving in dimethylsulfoxide and added to cell culture at a final concentration of <1% DMSO, when cells were treated with these compounds. MX was dissolved in sterilized water (pH 7.0). All stock solutions were kept at −20° C. BCNU was prepared fresh in 0.5 ml of 100% ethanol, diluted in PBS, and used with in 10 min. Colony Survival Assay. SW480 cells were obtained from the ATCC. HCT116 cells were obtained from R. Boland, University of Michigan Medical Center. All cell lines were cultured in appropriate growth medium.
Cells (2000/dish) were plated, adhered for 18 hrs and treated with TMZ or
MMS plus or minus modifiers such as […], MX, 6-AN, 3-AB or PD128763, according to experimental protocol. After treatment, cells were washed and fresh medium was replaced. The cells were grown for a further 7 days prior to staining with methylene blue for determination of colonies containing more than 50 cells. Comparisons of drug induced cytotoxicity consisted of a calculation of the dose modification factor (DMF), defined as the ratio of the IC50 of either TMZ or MMS in the absence to that in the presence of indicted modifier(s), i.e., DMF═IC50 for TMZ alone/IC50 for TMZ plus modifier(s).

[7] = tested on: AP sites in calf thymus DNA; assay: Competitive AP site binding assayed by Aldehyde Reactive Probe (ARP); conditions: MX 5-20 mM
Excerpt: 1. Analysis of chemical—modified AP Sites assayed by Aldehyde Reactive Probe (ARP). This is a competitive assay to measure the reactivity with AP site between ARP reagent (Dojindo Molecular Technologies Inc., Gaithersburg, Md.) and the screening compounds. ARP and MX have a similar reactivity with AP sites. They react specifically with an aldehyde group that is open ring form of the AP sites. Thus this assay will allow identification of compounds with potential to block AP site repair based on the binding affinity and efficiency to AP sites of screening compounds compared to ARP and MX.
a. AP site standard preparation: AP sites were produced in a calf thymus DNA by heat/acid-buffer solution. Intact calf thymus DNA was added to sodium citrate buffer (10 mM sodium citrate containing 10 mM NaH2PO4 and 10 mM NaCl, pH 5.0) and held at 70° C. for 30 min. The reaction was stopped by chilling rapidly on ice, and the DNA was then precipitated with cold ethanol, washed with 70% ethanol, dried, and resuspended in sterilized distilled water.
b. […] After NC membrane was rinsed with washing buffer containing NaCl (0.26 M), EDTA (1 mM), Tris-HCI (20 mM), and Tween 20 (1%), ARP-AP sites are visualized with ECL reagents (Amersham Corp.) (FIG. 22A) and quantitated by scanning densitometer (FIG. 22B).

Compound: CON [MX, methoxyamine]
- lethal dose [1]: 15 mg/kg
- Tumor growth delays [2]: 2.2 ± 0.4 days
- cleavage of modified AP sites by APE [3]: resistant to cleavage
- potentiation of TMZ cytotoxicity [4]: no potentiation
- Toxicity (max. BW loss) [5]: 0%
- cytotoxicity of MX alone ([6]; SW480, 6 mM MX): nontoxic
- DMF / potentiation of MMS cytotoxicity ([6]; SW480, MMS 0-3 mM plus 6 mM MX and/or BG vs MMS alone): 2.0 fold
- DMF (IC50 for TMZ alone/IC50 for TMZ plus modifier(s)) ([6]; SW480, modifier(s) plus TMZ vs TMZ alone): 2.4 fold
- effect of modifier on BCNU cytotoxicity ([6]; SW480, without BG): No enhancement
- potentiation of TMZ cytotoxicity ([6]; SW480 tumor cells, Example 13): 4 fold
- AP binding sites blocked (relative reduction of ARP-detected AP sites by densitometry) [7]: 38-80%
